Test results from ChEMBL document CHEMBL1201862, “PubChem BioAssay data set” (2004).
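Briefly, cells in 96-well plates were exposed to five compound concentrations for 48 h, and endpoints were estimated by linear interpolation. Here, GI50 denotes the concentration required for 50% inhibition of growth.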 Activity calls are given as the source filed them. Rule as the data show it: active = GI50 up to about 1.1 µM and inactive = higher.

Key:
Assay in all cases: DTP human tumour cell line panel, 48 h
NCI/ADR-RES = test system: NCI/ADR-RES
A549 = test system: A549
UO-31 = test system: UO-31
HOP-92 = test system: HOP-92
NCI-H522 = test system: NCI-H522
CCRF-CEM = test system: CCRF-CEM
CAKI-1 = test system: CAKI-1
K562 = test system: K562
NCI-H460 = test system: NCI-H460
KM12 = test system: KM12
M14 = test system: M14
MOLT-4 = test system: MOLT-4
SF-539 = test system: SF-539
SK-OV-3 = test system: SK-OV-3
EKVX = test system: EKVX
HT-29 = test system: HT-29
U-251 = test system: U-251
UACC-257 = test system: UACC-257
Malme-3M = test system: Malme-3M
RXF 393 = test system: RXF 393
DU-145 = test system: DU-145
T47D = test system: T47D
786-0 = test system: 786-0
SF-295 = test system: SF-295
LOX IMVI = test system: LOX IMVI
OVCAR-3 = test system: OVCAR-3
NCI-H23 = test system: NCI-H23
MDA-MB-435 = test system: MDA-MB-435
UACC-62 = test system: UACC-62
IGROV-1 = test system: IGROV-1
BT-549 = test system: BT-549
SK-MEL-5 = test system: SK-MEL-5
PC-3 = test system: PC-3
SK-MEL-2 = test system: SK-MEL-2
ACHN = test system: ACHN
SW-620 = test system: SW-620
RPMI-8226 = test system: RPMI-8226
SF-268 = test system: SF-268
SNB-75 = test system: SNB-75
TK-10 = test system: TK-10
Hs-578T = test system: Hs-578T
COLO 205 = test system: COLO 205
MDA-MB-231 = test system: MDA-MB-231
HOP-62 = test system: HOP-62
SK-MEL-28 = test system: SK-MEL-28
SNB-19 = test system: SNB-19
MCF7 = test system: MCF7
HL-60 = test system: HL-60
OVCAR-8 = test system: OVCAR-8
A498 = test system: A498
NCI-H226 = test system: NCI-H226
SN12C = test system: SN12C
OVCAR-5 = test system: OVCAR-5
OVCAR-4 = test system: OVCAR-4
MDA-N = test system: MDA-N
HCT-116 = test system: HCT-116
SR = test system: SR
HCT-15 = test system: HCT-15

For c1c[nH]c(CN2CCOCC2)n1, the GI50 (NCI/ADR-RES) was > 100 µM (inactive), the GI50 (A549) was > 100 µM (inactive) and the GI50 (UO-31) was > 100 µM (inactive). The GI50 (HOP-92) was > 100 µM (inactive), the GI50 (NCI-H522) was > 100 µM (inactive) and the GI50 (CCRF-CEM) was > 100 µM (inactive). The GI50 (CAKI-1) was > 100 µM (inactive), the GI50 (K562) was > 100 µM (inactive) and the GI50 (NCI-H460) was > 100 µM (inactive). The GI50 (KM12) was > 100 µM (inactive), the GI50 (M14) was > 100 µM (inactive) and the GI50 (MOLT-4) was > 100 µM (inactive). For the same compound, the GI50 (SF-539) was > 100 µM (inactive), the GI50 (SK-OV-3) was > 100 µM (inactive) and the GI50 (EKVX) was > 100 µM (inactive). For the same compound, the GI50 (HT-29) was > 100 µM (inactive), the GI50 (U-251) was > 100 µM (inactive) and the GI50 (UACC-257) was > 100 µM (inactive). The GI50 (Malme-3M) was > 100 µM (inactive), the GI50 (RXF 393) was > 100 µM (inactive) and the GI50 (DU-145) was > 100 µM (inactive). For the same compound, the GI50 (T47D) was > 100 µM (inactive), the GI50 (786-0) was > 100 µM (inactive) and the GI50 (SF-295) was > 100 µM (inactive). For the same compound, the GI50 (LOX IMVI) was > 100 µM (inactive), the GI50 (OVCAR-3) was > 100 µM (inactive) and the GI50 (NCI-H23) was > 100 µM (inactive). For the same compound, the GI50 (MDA-MB-435) was > 100 µM (inactive), the GI50 (UACC-62) was > 100 µM (inactive) and the GI50 (IGROV-1) was > 100 µM (inactive). For the same compound, the GI50 (BT-549) was > 100 µM (inactive), the GI50 (SK-MEL-5) was > 100 µM (inactive) and the GI50 (PC-3) was > 100 µM (inactive). The GI50 (SK-MEL-2) was > 100 µM (inactive), the GI50 (ACHN) was > 100 µM (inactive) and the GI50 (SW-620) was > 100 µM (inactive). The GI50 (RPMI-8226) was > 100 µM (inactive), the GI50 (SF-268) was > 100 µM (inactive) and the GI50 (SNB-75) was > 100 µM (inactive). The GI50 (TK-10) was > 100 µM (inactive), the GI50 (Hs-578T) was > 100 µM (inactive) and the GI50 (COLO 205) was > 100 µM (inactive). For the same compound, the GI50 (MDA-MB-231) was > 100 µM (inactive), the GI50 (HOP-62) was > 100 µM (inactive) and the GI50 (SK-MEL-28) was > 100 µM (inactive). The GI50 (SNB-19) was > 100 µM (inactive), the GI50 (MCF7) was > 100 µM (inactive) and the GI50 (HL-60) was > 100 µM (inactive). For the same compound, the GI50 (OVCAR-8) was > 100 µM (inactive), the GI50 (A498) was > 100 µM (inactive) and the GI50 (NCI-H226) was > 100 µM (inactive). The GI50 (SN12C) was > 100 µM (inactive), the GI50 (OVCAR-5) was > 100 µM (inactive) and the GI50 (OVCAR-4) was > 100 µM (inactive). The GI50 (MDA-N) was > 100 µM (inactive), the GI50 (HCT-116) was > 100 µM (inactive) and the GI50 (SR) was > 100 µM (inactive). It also gave a GI50 (HCT-15) greater than 100 µM.
With NC(=O)NOCC1NC(=O)NC1=O (stereo unspecified) the GI50 (NCI/ADR-RES) was > 100 µM (inactive), the GI50 (A549) was > 100 µM (inactive) and the GI50 (UO-31) was > 100 µM (inactive). The GI50 (HOP-92) was > 100 µM (inactive), the GI50 (NCI-H522) was > 100 µM (inactive) and the GI50 (CCRF-CEM) was 4.16 µM (inactive). For the same compound, the GI50 (CAKI-1) was > 100 µM (inactive), the GI50 (K562) was > 100 µM (inactive) and the GI50 (NCI-H460) was > 100 µM (inactive). For the same compound, the GI50 (KM12) was > 100 µM (inactive), the GI50 (M14) was > 100 µM (inactive) and the GI50 (MOLT-4) was > 100 µM (inactive). For the same compound, the GI50 (SF-539) was > 100 µM (inactive), the GI50 (SK-OV-3) was > 100 µM (inactive) and the GI50 (EKVX) was > 100 µM (inactive). For the same compound, the GI50 (HT-29) was > 100 µM (inactive), the GI50 (U-251) was > 100 µM (inactive) and the GI50 (UACC-257) was > 100 µM (inactive). For the same compound, the GI50 (Malme-3M) was > 100 µM (inactive), the GI50 (RXF 393) was > 100 µM (inactive) and the GI50 (DU-145) was > 100 µM (inactive). The GI50 (T47D) was > 100 µM (inactive), the GI50 (786-0) was > 100 µM (inactive) and the GI50 (SF-295) was > 100 µM (inactive). The GI50 (LOX IMVI) was > 100 µM (inactive), the GI50 (OVCAR-3) was > 100 µM (inactive) and the GI50 (NCI-H23) was > 100 µM (inactive). The GI50 (MDA-MB-435) was > 100 µM (inactive), the GI50 (UACC-62) was > 100 µM (inactive) and the GI50 (IGROV-1) was > 100 µM (inactive). For the same compound, the GI50 (BT-549) was > 100 µM (inactive), the GI50 (SK-MEL-5) was > 100 µM (inactive) and the GI50 (PC-3) was > 100 µM (inactive). For the same compound, the GI50 (SK-MEL-2) was > 100 µM (inactive), the GI50 (ACHN) was > 100 µM (inactive) and the GI50 (SW-620) was > 100 µM (inactive). The GI50 (RPMI-8226) was > 100 µM (inactive), the GI50 (SF-268) was > 100 µM (inactive) and the GI50 (SNB-75) was > 100 µM (inactive). For the same compound, the GI50 (TK-10) was > 100 µM (inactive), the GI50 (Hs-578T) was > 100 µM (inactive) and the GI50 (COLO 205) was > 100 µM (inactive). The GI50 (MDA-MB-231) was > 100 µM (inactive), the GI50 (HOP-62) was > 100 µM (inactive) and the GI50 (SK-MEL-28) was > 100 µM (inactive). For the same compound, the GI50 (SNB-19) was > 100 µM (inactive), the GI50 (MCF7) was > 100 µM (inactive) and the GI50 (HL-60) was 19.3 µM (inactive). The GI50 (OVCAR-8) was > 100 µM (inactive), the GI50 (A498) was > 100 µM (inactive) and the GI50 (NCI-H226) was > 100 µM (inactive). For the same compound, the GI50 (SN12C) was > 100 µM (inactive), the GI50 (OVCAR-5) was > 100 µM (inactive) and the GI50 (OVCAR-4) was > 100 µM (inactive). For the same compound, the GI50 (MDA-N) was > 100 µM (inactive), the GI50 (HCT-116) was > 100 µM (inactive) and the GI50 (SR) was > 100 µM (inactive). The GI50 (HCT-15) was greater than 100 µM.
